Counter-ions that a name gives are not always drawn.
Tested on: LXR (THP1/LXR-Luc cells)
Test: LXR-luciferase reporter bioassay (Example 31)
Format: cell-based, human
Conditions: signal to noise, ratio of RLU of standard one over standard eight; 48 hours
Text: Generation of assay cell line. To test the efficacy of anti-MSR1 antibody-LXR conjugates in vitro, a cell-based LXR responsive luciferase reporter assay was developed. To generate the assay cell line, a LXR regulated luciferase reporter gene [Cignal Lenti LXR Reporter (luc) kit (Qiagen, Cat #CLS-001 L)] was transduced into THP1 cells, and cells were selected for two weeks in puromycin. The lentivirus expresses the firefly luciferase gene under the control of a minimal CMV promoter and tandem repeats of the LXR transcriptional response element. The resulting cell line is referred to as THP1/LXR-Luc cells.
Assay protocol. THP1/LXR-Luc cells were seeded onto 96 well plates at 40,000 cells/well in media containing RPMI supplemented with 10% FBS and pencillin/streptomycin and subsequently differentiated with 200 nM Phorbol Myristate Acetate (PMA) for 3 days. After the 3-day differentiation period, three-fold serial dilutions of antibody drug conjugates, unconjugated antibodies, or free payloads in fresh media were added to the cells at final concentration ranging from 100 nM to 0.01 nM. Media alone served as a blank control. Forty-eight hours later, luciferase activity was determined after the addition of One-Glo™ reagent (Promega, Cat #E6130) to each well. Relative light units (RLUs) were measured on a Victor luminometer (PerkinElmer) and EC50 values were determined using a four-parameter logistic equation over a 10-point dose response curve (GraphPad Prism). The signal to noise (S/N) was determined by calculating the ratio of RLU of standard one over RLU of standard eight for each of the unconjugated anti-MSR1 antibodies or free payloads. “LP #” represents a linker-payload for which the corresponding structures are provided elsewhere herein, and “P #” represents a payload for which the corresponding structures are provided elsewhere herein.

Row | Compound | S/N
1 | C[C@]1(C(=O)NC(=O)[C@@]2(C)CCC[C@]3(C)c4cc(NC(=O)[C@@H](N)CO)ccc4CC[C@@H]23)CCC[C@]2(C)c3cc(O)ccc3CC[C@@H]12 [P5, (1S,4aS,10aR)-6-((S)-2-Amino-3-hydroxypropanamido)-N-((1S,4aS,10aR)-6-hydroxy-1,4a-dimethyl-1,2,3,4,4a,9,10,10a-octahydrophenanthrene-1-carbonyl)-1,4a-dimethyl-1,2,3,4,4a,9,10,10a-octahydrophenanthrene-1-carboxamide] | 5.7
2 | C[C@]1(C(=O)NC(=O)[C@@]2(C)CCC[C@]3(C)c4cc(NC(=O)[C@@H](N)CCC(=O)O)ccc4CC[C@@H]23)CCC[C@]2(C)c3cc(O)ccc3CC[C@@H]12 [P6, (4S)-4-Amino-4-{[(4bS,8S,8aR)-8-{[(1S,4aS,10aR)-6-hydroxy-1,4a-dimethyl-1,2,3,4,4a,9,10,10a-octahydrophenanthrene-1-carbonyl]carbamoyl}-4b,8-dimethyl-4b,5,6,7,8,8a,9,10-octahydrophenanthren-3-yl]carbamoyl}butanoic acid; trifluoroacetic acid salt] | 8.3
3 | C[C@]1(C(=O)NC(=O)[C@@]2(C)CCC[C@]3(C)c4cc(NC(=O)[C@@H](N)CCCCN)ccc4CC[C@@H]23)CCC[C@]2(C)c3cc(O)ccc3CC[C@@H]12 [P7, (1S,4aS,10aR)-N-[(1S,4aS,10aR)-6-Hydroxy-1,4a-dimethyl-1,2,3,4,4a,9,10,10a-octahydrophenanthrene-1-carbonyl]-6-[(2S)-2,6-diaminohexanamido]-1,4a-dimethyl-1,2,3,4,4a,9,10,10a-octahydrophenanthrene-1-carboxamide; trifluoroacetic acid salt] | 8.9
